Measured values as given in ChEMBL document CHEMBL3885881, “DrugMatrix”.

Species on record: Rattus norvegicus
Experiment: DrugMatrix - Regimen: Daily Repeat
Type: toxicity, organism-based, Sprague-Dawley
Parameters: regimen Daily Repeat, gender Male, age 6-8 weeks
Settings: in vivo, po, route oral GAVAGE, […]; for ABSOLUTE BASOPHIL / ABSOLUTE EOSINOPHIL / ABSOLUTE LYMPHOCYTE / ABSOLUTE MONOCYTE / ABSOLUTE SEGMENTED NEUTROPHIL / BASOPHIL / EOSINOPHIL / ERYTHROCYTE COUNT / HEMATOCRIT / HEMOGLOBIN / LEUKOCYTE COUNT / LYMPHOCYTE / MEAN CORPUSCULAR HEMOGLOBIN / MEAN CORPUSCULAR HEMOGLOBIN CONCENTRATION / MEAN CORPUSCULAR VOLUME / MONOCYTE / NEUTROPHIL / NUCLEATED RED BLOOD CELLS / PLATELET COUNT: tissue Blood; for ALANINE AMINOTRANSFERASE / ALBUMIN / ALKALINE PHOSPHATASE / ASPARTATE AMINOTRANSFERASE / BLOOD UREA NITROGEN / CARBON DIOXIDE / CHLORIDE / CHOLESTEROL / CREATINE PHOSPHOKINASE / CREATININE / GLUCOSE / LACTATE DEHYDROGENASE / LIPASE / PHOSPHORUS / POTASSIUM / SODIUM / TOTAL BILIRUBIN / TOTAL PROTEIN / URIC ACID: tissue Plasma
[1] = 30 mg/kg, 120 h, dose level Low, time 5 day
[2] = 1000 mg/kg, 72 h, dose level High, time 3 day
[3] = 1000 mg/kg, 120 h, dose level High, time 5 day

CCCCC(=O)N(Cc1ccc(-c2ccccc2-c2nnn[nH]2)cc1)[C@H](C(=O)O)C(C)C
ABSOLUTE BASOPHIL [1]: 0 CELLS/uL
ABSOLUTE EOSINOPHIL [1]: 0 CELLS/uL
ABSOLUTE LYMPHOCYTE [1]: 14863.33 CELLS/uL
ABSOLUTE MONOCYTE [1]: 58.33 CELLS/uL
ABSOLUTE SEGMENTED NEUTROPHIL [1]: 1411.67 CELLS/uL
BASOPHIL [1]: 0%
EOSINOPHIL [1]: 0%
ERYTHROCYTE COUNT [1]: 5.54 x10E6/uL
HEMATOCRIT [1]: 34.23%
HEMOGLOBIN [1]: 13.5 G/DL
LEUKOCYTE COUNT [1]: 16.33 x10E3/uL
LYMPHOCYTE [1]: 91%
MEAN CORPUSCULAR HEMOGLOBIN [1]: 24.4 pg
MEAN CORPUSCULAR HEMOGLOBIN CONCENTRATION [1]: 39.43 G/DL
MEAN CORPUSCULAR VOLUME [1]: 61.87 fL
MONOCYTE [1]: 0.33%
NEUTROPHIL [1]: 8.67%
NUCLEATED RED BLOOD CELLS [1]: 0 /100WBC
PLATELET COUNT [1]: 1196 x10E3/uL
ALANINE AMINOTRANSFERASE [1]: 63.67 u/L
ALBUMIN [1]: 4.07 G/DL
ALKALINE PHOSPHATASE [1]: 455.33 u/L
ASPARTATE AMINOTRANSFERASE [1]: 87.33 u/L
BLOOD UREA NITROGEN [1]: 15.67 mg/dL
CARBON DIOXIDE [1]: 23.33 mmol/L
CHLORIDE [1]: 102.33 MEQ/L
CHOLESTEROL [1]: 63 mg/dL
CREATINE PHOSPHOKINASE [1]: 339 u/L
CREATININE [1]: 0.18 mg/dL
GLUCOSE [1]: 206.33 mg/dL
LACTATE DEHYDROGENASE [1]: 183 u/L
LIPASE [1]: 9.33 u/L
PHOSPHORUS [1]: 12.9 mg/dL
POTASSIUM [1]: 6.08 MEQ/L
SODIUM [1]: 140.77 MEQ/L
TOTAL BILIRUBIN [1]: 0.13 mg/dL
TOTAL PROTEIN [1]: 5.6 G/DL
URIC ACID [1]: 2.2 mg/dL
ABSOLUTE BASOPHIL [2]: 0 CELLS/uL
ABSOLUTE EOSINOPHIL [2]: 0 CELLS/uL
ABSOLUTE LYMPHOCYTE [2]: 6741.67 CELLS/uL
ABSOLUTE MONOCYTE [2]: 52 CELLS/uL
ABSOLUTE SEGMENTED NEUTROPHIL [2]: 673 CELLS/uL
BASOPHIL [2]: 0%
EOSINOPHIL [2]: 0%
ERYTHROCYTE COUNT [2]: 5.05 x10E6/uL
HEMATOCRIT [2]: 31%
HEMOGLOBIN [2]: 12.27 G/DL
LEUKOCYTE COUNT [2]: 7.47 x10E3/uL
LYMPHOCYTE [2]: 90.67%
MEAN CORPUSCULAR HEMOGLOBIN [2]: 24.33 pg
MEAN CORPUSCULAR HEMOGLOBIN CONCENTRATION [2]: 39.6 G/DL
MEAN CORPUSCULAR VOLUME [2]: 61.43 fL
MONOCYTE [2]: 0.67%
NEUTROPHIL [2]: 8.67%
NUCLEATED RED BLOOD CELLS [2]: 0 /100WBC
PLATELET COUNT [2]: 1278.67 x10E3/uL
ALANINE AMINOTRANSFERASE [2]: 56.67 u/L
ALBUMIN [2]: 3.8 G/DL
ALKALINE PHOSPHATASE [2]: 381.67 u/L
ASPARTATE AMINOTRANSFERASE [2]: 79.67 u/L
BLOOD UREA NITROGEN [2]: 47.33 mg/dL
CARBON DIOXIDE [2]: 23 mmol/L
CHLORIDE [2]: 100.67 MEQ/L
CHOLESTEROL [2]: 69.33 mg/dL
CREATINE PHOSPHOKINASE [2]: 401 u/L
CREATININE [2]: 0.56 mg/dL
GLUCOSE [2]: 149 mg/dL
LACTATE DEHYDROGENASE [2]: 105.67 u/L
LIPASE [2]: 10 u/L
PHOSPHORUS [2]: 9.53 mg/dL
POTASSIUM [2]: 7.33 MEQ/L
SODIUM [2]: 138.9 MEQ/L
TOTAL BILIRUBIN [2]: 0.2 mg/dL
TOTAL PROTEIN [2]: 5.27 G/DL
URIC ACID [2]: 1.17 mg/dL
ABSOLUTE BASOPHIL [3]: 0 CELLS/uL
ABSOLUTE EOSINOPHIL [3]: 82 CELLS/uL
ABSOLUTE LYMPHOCYTE [3]: 18525.33 CELLS/uL
ABSOLUTE MONOCYTE [3]: 112.67 CELLS/uL
ABSOLUTE SEGMENTED NEUTROPHIL [3]: 746.67 CELLS/uL
BASOPHIL [3]: 0%
EOSINOPHIL [3]: 0.33%
ERYTHROCYTE COUNT [3]: 5.79 x10E6/uL
HEMATOCRIT [3]: 35.4%
HEMOGLOBIN [3]: 13.73 G/DL
LEUKOCYTE COUNT [3]: 19.47 x10E3/uL
LYMPHOCYTE [3]: 95%
MEAN CORPUSCULAR HEMOGLOBIN [3]: 23.7 pg
MEAN CORPUSCULAR HEMOGLOBIN CONCENTRATION [3]: 38.8 G/DL
MEAN CORPUSCULAR VOLUME [3]: 61.13 fL
MONOCYTE [3]: 0.67%
NEUTROPHIL [3]: 4%
NUCLEATED RED BLOOD CELLS [3]: 0 /100WBC
PLATELET COUNT [3]: 1264 x10E3/uL
ALANINE AMINOTRANSFERASE [3]: 55.33 u/L
ALBUMIN [3]: 4.03 G/DL
ALKALINE PHOSPHATASE [3]: 436 u/L
ASPARTATE AMINOTRANSFERASE [3]: 82.33 u/L
BLOOD UREA NITROGEN [3]: 56 mg/dL
CARBON DIOXIDE [3]: 23.33 mmol/L
CHLORIDE [3]: 105 MEQ/L
CHOLESTEROL [3]: 70.67 mg/dL
CREATINE PHOSPHOKINASE [3]: 365 u/L
CREATININE [3]: 0.42 mg/dL
GLUCOSE [3]: 175.33 mg/dL
LACTATE DEHYDROGENASE [3]: 181.67 u/L
LIPASE [3]: 10.33 u/L
PHOSPHORUS [3]: 11.47 mg/dL
POTASSIUM [3]: 7.6 MEQ/L
SODIUM [3]: 140.73 MEQ/L
TOTAL BILIRUBIN [3]: 0.17 mg/dL
TOTAL PROTEIN [3]: 5.87 G/DL
URIC ACID [3]: 1.6 mg/dL
